Test results reported in patent US10918633B2, “Method of treating coronavirus” (MyMD Pharmaceuticals, Inc., priority 2015, dated 2021).
“Also recorded” adds a separate entry of the source.

Key:
[1] = test system: hydrogen sulfide (H2S); assay: Serum hydrogen sulfide (H2S) by ELISA in mice with EAE; format: in vivo; details: 5 mg/ml isomyosmine in water, FIG. 3A-3B
Experimental: This example describes an experiment to determine whether treatments with isomyosmine have an effect on hydrogen sulfide (H2S) quantity in mice with experimental autoimmune encephalomyelitis (EAE). Mice were immunized for EAE on day 0 and treated with either vehicle control or 5 mg/ml isomyosmine in water, for the duration of the experiment. Blood was collected, serum was separated and assayed for H2S via Kamiya Biomedical ELISA kit per the manufacturer's instructions. Two different experiments were performed. In the first experiment, blood was collected at the end of disease course. In the second experiment, blood was collected at day 12 after immunization.

[2] = target: T1, MAO-B (Homo sapiens, UniProt P27338); assay: MAO-Glo luminescent assay, MAO-B inhibition; format: biochemical; details: compared with myosmine, anatabine, anabasine, nornicotine; FIG. 2
T1 construct: purchased
T1 sequence (P27338 1-520): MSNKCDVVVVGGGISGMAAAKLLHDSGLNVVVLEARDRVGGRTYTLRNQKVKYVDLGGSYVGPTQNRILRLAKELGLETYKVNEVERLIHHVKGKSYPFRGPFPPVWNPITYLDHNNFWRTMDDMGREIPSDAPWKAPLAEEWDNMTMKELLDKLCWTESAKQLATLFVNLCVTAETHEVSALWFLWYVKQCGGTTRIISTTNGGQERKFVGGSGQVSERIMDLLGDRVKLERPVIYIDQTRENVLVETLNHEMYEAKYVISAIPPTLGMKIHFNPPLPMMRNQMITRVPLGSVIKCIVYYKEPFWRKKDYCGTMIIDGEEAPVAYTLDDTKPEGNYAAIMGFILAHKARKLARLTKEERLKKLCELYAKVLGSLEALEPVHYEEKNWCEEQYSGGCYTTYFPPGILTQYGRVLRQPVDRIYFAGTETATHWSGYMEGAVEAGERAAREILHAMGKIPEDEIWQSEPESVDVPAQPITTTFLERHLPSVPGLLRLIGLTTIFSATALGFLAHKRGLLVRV
Description: (§1) This example describes experiments for determining monoamine oxidase (MAO) inhibition for isomyosmine and other alkaloids. MAOs are enzymes located on the outer membrane of mitochondria and are involved in the catabolism of monoamine neurotransmitters. There are two well-characterized isoenzymes: MAO-A, which predominantly catabolizes serotonin and norepinephrine, and MAO-B, which preferentially catabolizes benzylamine and phenylethylamine. Dopamine and tyramine are metabolized by both isoforms.
(§2) To detect the activity of MAO, a luminescent method (MAO-Glo Assay kit, from Promega, Cat #V1401) was used. In this method, a MAO substrate (a derivative of beetle luciferin provided in the kit) is mixed with the compound to be tested (in this case, myosmine and control compounds). Then, the MAO enzymes (either A or B, purchased separately) are added to the mixture and incubated with the reaction for 1 hour at room temperature. The MAO enzymes, if not inhibited by the test compound, will convert the substrate into methyl ester luciferin. Finally, a luciferin detection reagent (provided by the kit) is added (20 minutes at room temperature) to stop the MAO reaction and convert methyl ester luciferin into D-luciferin. […] The luminescent signal is measured and recorded using a luminometer. […]

[3] = test system: herpes labialis (cold sores), a type of herpes simplex; assay: Treatment of herpes labialis (cold sores) in an individual; format: in vivo, human; details: 100 mg dose upon first feeling the onset of a cold sore
Experimental: This example illustrates administering isomyosmine to treat herpes labialis (cold sores), a type of herpes simplex occurring on the lip. An individual who experiences periodic outbreaks of herpes labialis was administered a 100 mg dose of isomyosmine upon first feeling the onset of a cold sore.

[4] = target: T2, MAO-A (Homo sapiens, UniProt P21397); assay: MAO-Glo luminescent assay, MAO-A inhibition; format: biochemical; details: FIG. 1
T2 construct: purchased
T2 sequence (P21397 1-527): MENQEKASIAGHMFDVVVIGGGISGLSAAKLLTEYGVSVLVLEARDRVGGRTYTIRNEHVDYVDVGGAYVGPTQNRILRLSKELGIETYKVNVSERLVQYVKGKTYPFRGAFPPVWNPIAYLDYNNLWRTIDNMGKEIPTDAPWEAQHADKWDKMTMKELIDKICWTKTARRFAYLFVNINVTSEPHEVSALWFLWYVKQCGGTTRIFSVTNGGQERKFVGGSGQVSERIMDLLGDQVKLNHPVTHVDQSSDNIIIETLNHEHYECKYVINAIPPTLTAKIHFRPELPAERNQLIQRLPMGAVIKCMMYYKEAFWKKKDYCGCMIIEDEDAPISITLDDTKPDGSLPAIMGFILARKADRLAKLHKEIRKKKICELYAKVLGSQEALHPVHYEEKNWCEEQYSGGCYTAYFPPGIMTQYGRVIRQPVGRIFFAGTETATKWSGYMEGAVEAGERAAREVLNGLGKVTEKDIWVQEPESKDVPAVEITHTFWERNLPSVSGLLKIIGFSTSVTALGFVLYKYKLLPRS
Description: as §1, §2

[5] = test system: purified nitrate reductase; assay: Cell-free nitrate reductase inhibition, Griess reaction; format: biochemical
Experimental: Standard concentrations of nitrate were incubated with purified nitrate reductase and vehicle or isomyosmine, and the Griess reaction was used to measure nitrite. Several concentrations of nitrate and two concentrations of isomyosmine were used.

SMILES: C1=NC(c2cccnc2)CC1 (centres unmarked) [isomyosmine, 3-(3,4-dihydro-2H-pyrrol-2-yl)-pyridine]
- H2S in serum as measured by ELISA ([1]; blood collected at day 12 after immunization): trend toward an increase in H2S
- H2S in serum as measured by ELISA ([1]; blood collected at the end of disease course): trend toward an increase in H2S
- inhibition of the activity of MAO-B (in words) [2]: most potent among the five alkaloids tested; also recorded: potent inhibitor
- prevention of cold sore outbreak [3]: effective to prevent the outbreak of the cold sore
- inhibition at 2000 µM ([4]; 2 mM concentration (2,000 micromolar), read-out: inhibition of the enzymatic activity of MAO-A): ~50%
- inhibition of the enzymatic activity of MAO-A (in words, curve position) ([4]; compared with myosmine, anatabine, anabasine, nornicotine): most potent of the five; also recorded: potent inhibitor
- inhibition of nitrate reductase ([5]; high amount of substrate, system saturated (FIG. 4C)): inhibitory effect was reduced
- inhibition of nitrate reductase ([5]; low amount of substrate (FIG. 4A)): most efficiently
